Patent publication US6372769B1 (priority 1999, dated 2002)
Values joined by “and” are separate entries in the source; they are usually repeats but may differ in a detail not shown here. Identical values can stand only once.

How the values were obtained:
Conditions in all cases: in vivo
[1] = system: Erysiphe graminis f. sp. tritici
[2] = system: Puccinia recondita f. sp. tritici
Pyricularia oryzae = system: Pyricularia oryzae
Sphaerotheca fulginea = system: Sphaerotheca fulginea
Septoria nodorum = system: Septoria nodorum
Plasmopara viticola = system: Plasmopara viticola

| SMILES | percent disease control, Wheat Powdery Mildew (WPM) [1] | percent disease control, Wheat Leaf Rust (WLR) [2] | plant damage (necrosis / death of plant) in RB test (Pyricularia oryzae) | percent disease control, Cucumber Powdery Mildew (CPM) (Sphaerotheca fulginea) | plant damage (necrosis / death of plant) in SNW test (Septoria nodorum) | percent disease control, Grape Downy Mildew (GDM) (Plasmopara viticola) [%] | percent disease control, Rice Blast (RB) (Pyricularia oryzae) | percent disease control, Septoria on Wheat (SNW) (Septoria nodorum) |
| --- | --- | --- | --- | --- | --- | --- | --- | --- |
| O=C(Nc1c(Br)cc(Br)cc1Br)c1sc(C(F)(F)F)nc1C(F)(F)F [Compound 3] | 85% and 80% and 50% | 99% and 90% and 85% |  |  |  |  |  |  |
| O=C(Nc1cc(F)c(F)c(F)c1F)c1sc(C(F)(F)F)nc1C(F)(F)F [Compound 4] |  |  | 50/5 | 0% and 0/5% | —/5 |  |  |  |
| O=C(Nc1c(Br)cc(OC(F)(F)F)cc1Br)c1sc(C(F)(F)F)nc1C(F)(F)F [Compound 5] | 95% and 80% | 100% and 95% |  |  |  | 0 | 95% and 90% | 80% and 75% |
| O=C(Nc1c(Cl)c(Cl)c(Cl)c(Cl)c1Cl)c1sc(C(F)(F)F)nc1C(F)(F)F [Compound 2] | 80% and 75% and 50% | 100% and 99% and 90% |  |  |  |  |  |  |
